This is an account of results in patent publication US10221197B2, “Phosphatidylinositol 3-kinase inhibitors” (Gilead Sciences, Inc., priority 2014, dated 2019).

Holding throughout (assay type): biochemical
One experiment has as its target PI3Kγ (Homo sapiens (Human), UniProt P48736). The experiment in a line: TR-FRET enzymatic assay of PI3K isoforms (PI3Kγ). Particulars: TR-FRET, 2×Km ATP, 2 μM PIP2, PI3Kγ at 2 nM, incubated for 30 minutes at 25° C.; read-out: γ IC50. On the procedure:
(§1) The compounds of formula (I) were characterized for their enzymatic activity against the PI3K isoforms. Certain compounds of the present application, including certain compounds of formula (II) and (III) were also characterized for their enzymatic activity against PI3K isoforms. The activities were measured using a time-resolved fluorescence resonance energy transfer (TR-FRET) assay.
A general note: TR-FRET usually uses a lanthanide donor and a delayed reading to cut background.

For the next experiment, the target named is PI3Kβ (Homo sapiens (Human), UniProt P42338). The experiment is described as follows: TR-FRET enzymatic assay of PI3K isoforms (PI3Kβ). Particulars: TR-FRET, 2×Km ATP, 2 μM PIP2, incubated for 30 minutes at 25° C.; read-out: β IC50. As to the method: as §1
Chain of PI3Kβ (P42338 whole entry, canonical isoform): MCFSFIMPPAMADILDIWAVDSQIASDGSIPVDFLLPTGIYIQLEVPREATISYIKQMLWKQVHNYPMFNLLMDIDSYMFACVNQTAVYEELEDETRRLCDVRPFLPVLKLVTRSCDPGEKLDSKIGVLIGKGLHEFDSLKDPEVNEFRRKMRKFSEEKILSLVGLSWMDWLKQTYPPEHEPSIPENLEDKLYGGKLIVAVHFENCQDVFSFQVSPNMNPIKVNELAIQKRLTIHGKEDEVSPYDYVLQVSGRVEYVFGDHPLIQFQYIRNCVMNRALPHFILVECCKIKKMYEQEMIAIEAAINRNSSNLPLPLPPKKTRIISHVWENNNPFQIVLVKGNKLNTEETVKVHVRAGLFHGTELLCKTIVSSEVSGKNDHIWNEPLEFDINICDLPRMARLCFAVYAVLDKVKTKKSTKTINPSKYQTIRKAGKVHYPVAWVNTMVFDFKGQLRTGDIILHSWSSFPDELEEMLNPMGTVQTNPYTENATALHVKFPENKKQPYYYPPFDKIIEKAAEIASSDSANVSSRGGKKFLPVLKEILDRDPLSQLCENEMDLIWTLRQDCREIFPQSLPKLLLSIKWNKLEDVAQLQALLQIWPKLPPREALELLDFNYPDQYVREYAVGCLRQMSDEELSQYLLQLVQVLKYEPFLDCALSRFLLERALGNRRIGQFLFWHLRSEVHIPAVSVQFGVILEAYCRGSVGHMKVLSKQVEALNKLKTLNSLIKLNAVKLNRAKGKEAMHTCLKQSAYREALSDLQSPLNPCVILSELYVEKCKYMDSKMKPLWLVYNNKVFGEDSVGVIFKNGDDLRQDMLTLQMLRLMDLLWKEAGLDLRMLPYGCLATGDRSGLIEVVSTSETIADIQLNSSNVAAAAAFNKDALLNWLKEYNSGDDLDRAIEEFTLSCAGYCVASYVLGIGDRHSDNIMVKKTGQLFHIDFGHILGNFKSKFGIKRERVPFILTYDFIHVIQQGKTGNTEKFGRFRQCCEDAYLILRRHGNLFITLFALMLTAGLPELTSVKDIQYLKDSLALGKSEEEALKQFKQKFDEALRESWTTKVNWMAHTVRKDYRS
Chain of PI3Kβ (P27986 whole entry partner, canonical isoform): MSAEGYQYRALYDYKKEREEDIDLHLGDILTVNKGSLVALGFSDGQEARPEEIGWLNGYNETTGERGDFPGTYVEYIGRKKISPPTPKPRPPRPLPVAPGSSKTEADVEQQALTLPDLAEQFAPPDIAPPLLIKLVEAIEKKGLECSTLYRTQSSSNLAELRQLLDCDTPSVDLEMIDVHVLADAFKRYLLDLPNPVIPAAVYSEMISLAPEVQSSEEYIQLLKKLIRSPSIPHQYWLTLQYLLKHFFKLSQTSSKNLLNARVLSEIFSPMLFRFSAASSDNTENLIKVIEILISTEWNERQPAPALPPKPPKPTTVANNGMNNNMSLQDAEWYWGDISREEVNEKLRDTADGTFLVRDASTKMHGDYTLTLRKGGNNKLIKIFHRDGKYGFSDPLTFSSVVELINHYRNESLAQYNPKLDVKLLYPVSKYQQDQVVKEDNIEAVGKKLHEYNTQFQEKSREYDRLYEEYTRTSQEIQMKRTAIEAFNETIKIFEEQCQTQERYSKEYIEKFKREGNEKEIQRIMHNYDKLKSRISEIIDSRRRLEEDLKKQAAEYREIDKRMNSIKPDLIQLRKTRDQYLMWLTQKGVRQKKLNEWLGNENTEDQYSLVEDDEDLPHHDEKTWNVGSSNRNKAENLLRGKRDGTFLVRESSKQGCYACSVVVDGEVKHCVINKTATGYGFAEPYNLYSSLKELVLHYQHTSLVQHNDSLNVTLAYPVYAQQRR
In the next experiment the target is PI3Kδ (Homo sapiens (Human), UniProt O00329). The experiment is described as follows: TR-FRET enzymatic assay of PI3K isoforms (PI3Kδ). To be noted: 2×Km ATP, 2 μM PIP2, incubated for 30 minutes at 25° C., read-out: δ IC50. As to the method:
as §1

Chain of PI3Kδ (O00329 whole entry, canonical isoform): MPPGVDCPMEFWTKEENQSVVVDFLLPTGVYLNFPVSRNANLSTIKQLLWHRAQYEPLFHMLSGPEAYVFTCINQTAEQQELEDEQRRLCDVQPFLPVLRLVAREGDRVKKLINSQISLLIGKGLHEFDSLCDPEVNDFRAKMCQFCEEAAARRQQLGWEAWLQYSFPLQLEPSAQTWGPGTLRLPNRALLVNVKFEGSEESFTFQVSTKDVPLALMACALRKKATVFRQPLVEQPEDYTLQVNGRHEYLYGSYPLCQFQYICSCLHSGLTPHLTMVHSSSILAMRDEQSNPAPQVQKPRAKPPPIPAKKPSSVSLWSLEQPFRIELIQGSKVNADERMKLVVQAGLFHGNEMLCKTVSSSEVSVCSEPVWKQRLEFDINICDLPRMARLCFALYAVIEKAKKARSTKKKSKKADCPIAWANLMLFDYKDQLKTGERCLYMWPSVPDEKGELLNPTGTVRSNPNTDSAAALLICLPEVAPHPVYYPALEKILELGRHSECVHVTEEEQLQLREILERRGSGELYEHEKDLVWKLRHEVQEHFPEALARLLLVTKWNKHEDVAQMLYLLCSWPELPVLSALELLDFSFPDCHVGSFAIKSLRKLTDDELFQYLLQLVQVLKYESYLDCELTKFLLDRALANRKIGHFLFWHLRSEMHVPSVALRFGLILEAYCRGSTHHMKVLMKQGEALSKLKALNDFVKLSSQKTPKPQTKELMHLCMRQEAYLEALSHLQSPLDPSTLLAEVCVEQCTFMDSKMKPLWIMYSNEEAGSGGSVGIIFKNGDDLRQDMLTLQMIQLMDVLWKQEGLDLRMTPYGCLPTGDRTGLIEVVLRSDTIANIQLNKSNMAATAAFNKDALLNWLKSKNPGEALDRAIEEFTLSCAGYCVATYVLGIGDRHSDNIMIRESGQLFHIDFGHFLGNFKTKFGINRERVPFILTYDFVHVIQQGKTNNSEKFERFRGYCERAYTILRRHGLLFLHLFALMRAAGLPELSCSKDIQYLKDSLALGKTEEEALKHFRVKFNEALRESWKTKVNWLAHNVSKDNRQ
Chain of PI3Kδ (P27986 whole entry partner, canonical isoform): as the sequence (P27986 whole entry partner, canonical isoform) above
Chain of PI3Kγ (P48736 whole entry, canonical isoform): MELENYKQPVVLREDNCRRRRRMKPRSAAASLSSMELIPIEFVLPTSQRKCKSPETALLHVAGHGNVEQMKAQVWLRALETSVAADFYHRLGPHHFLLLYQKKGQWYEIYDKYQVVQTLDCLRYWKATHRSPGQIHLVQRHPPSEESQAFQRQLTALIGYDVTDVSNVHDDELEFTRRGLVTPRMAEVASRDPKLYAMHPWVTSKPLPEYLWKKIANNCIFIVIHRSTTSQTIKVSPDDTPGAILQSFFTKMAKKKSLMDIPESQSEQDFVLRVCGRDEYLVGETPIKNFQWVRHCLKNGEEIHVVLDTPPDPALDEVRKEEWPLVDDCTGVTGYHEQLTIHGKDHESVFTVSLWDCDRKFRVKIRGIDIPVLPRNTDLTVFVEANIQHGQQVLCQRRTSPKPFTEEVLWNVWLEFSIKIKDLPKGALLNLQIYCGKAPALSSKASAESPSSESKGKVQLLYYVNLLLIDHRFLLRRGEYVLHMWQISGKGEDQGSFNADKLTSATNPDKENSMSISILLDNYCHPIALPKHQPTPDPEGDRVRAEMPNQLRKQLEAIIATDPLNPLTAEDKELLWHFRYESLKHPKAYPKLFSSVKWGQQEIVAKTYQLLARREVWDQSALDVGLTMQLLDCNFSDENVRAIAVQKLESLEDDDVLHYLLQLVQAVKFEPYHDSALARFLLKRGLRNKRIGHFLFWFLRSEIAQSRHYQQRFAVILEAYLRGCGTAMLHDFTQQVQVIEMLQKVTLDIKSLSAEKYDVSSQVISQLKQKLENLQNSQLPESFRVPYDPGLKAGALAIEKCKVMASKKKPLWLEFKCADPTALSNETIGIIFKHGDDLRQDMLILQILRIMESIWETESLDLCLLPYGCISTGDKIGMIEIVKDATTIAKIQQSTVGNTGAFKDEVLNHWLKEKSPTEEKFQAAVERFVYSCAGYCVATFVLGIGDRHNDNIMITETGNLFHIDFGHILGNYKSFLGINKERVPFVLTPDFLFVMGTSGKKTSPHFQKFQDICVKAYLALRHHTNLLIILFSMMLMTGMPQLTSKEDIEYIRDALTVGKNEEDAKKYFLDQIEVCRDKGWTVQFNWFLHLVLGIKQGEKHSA
Chain of PI3Kγ (Q8WYR1 whole entry partner, canonical isoform): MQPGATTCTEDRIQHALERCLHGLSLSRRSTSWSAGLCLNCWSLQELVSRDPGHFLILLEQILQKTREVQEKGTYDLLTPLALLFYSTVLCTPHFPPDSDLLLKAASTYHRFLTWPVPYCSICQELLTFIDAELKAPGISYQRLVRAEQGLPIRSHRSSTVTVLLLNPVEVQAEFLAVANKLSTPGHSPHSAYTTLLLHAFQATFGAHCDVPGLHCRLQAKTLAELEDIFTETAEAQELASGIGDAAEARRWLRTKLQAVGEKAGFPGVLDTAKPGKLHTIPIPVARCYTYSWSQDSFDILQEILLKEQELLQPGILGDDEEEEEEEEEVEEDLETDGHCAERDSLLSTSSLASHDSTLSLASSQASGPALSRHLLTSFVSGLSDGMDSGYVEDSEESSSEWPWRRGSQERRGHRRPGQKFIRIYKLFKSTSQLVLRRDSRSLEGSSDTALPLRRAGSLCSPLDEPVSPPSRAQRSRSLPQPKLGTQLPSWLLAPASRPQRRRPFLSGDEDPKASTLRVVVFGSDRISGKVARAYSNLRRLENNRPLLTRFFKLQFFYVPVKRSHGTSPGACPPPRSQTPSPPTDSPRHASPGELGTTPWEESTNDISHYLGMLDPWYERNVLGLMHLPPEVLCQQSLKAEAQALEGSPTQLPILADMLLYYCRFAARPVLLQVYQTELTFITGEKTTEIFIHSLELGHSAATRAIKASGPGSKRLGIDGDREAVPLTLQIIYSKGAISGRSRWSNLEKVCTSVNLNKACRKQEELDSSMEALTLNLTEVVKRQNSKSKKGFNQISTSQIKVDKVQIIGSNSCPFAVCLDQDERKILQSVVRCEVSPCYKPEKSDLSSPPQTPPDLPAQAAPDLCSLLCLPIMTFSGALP

Turning to `CCC[C@H](Nc1nc(N)nc(N)c1C#N)c1nc2cccc(Cl)c2c(=O)n1-c1cccc(C(N)=O)c1` [Compound 22, (S)-3-(5-chloro-2-(1-((2,6-diamino-5-cyanopyrimidin-4-yl)amino)butyl)-4-oxoquinazolin-3(4H)-yl)benzamide], the IC50 (commonly the concentration that inhibits the measured activity by half) was determined as 300 nM on PI3Kγ, 7 nM at PI3Kβ and 0.7 nM on PI3Kδ.
For `CCC[C@H](Nc1nc(N)nc(N)c1Cl)c1nc2cccc(Cl)c2c(=O)n1-c1cccc(C(N)=O)c1` [Compound 23, (S)-3-(5-chloro-2-(1-((2,6-diamino-5-chloropyrimidin-4-yl)amino)butyl)-4-oxoquinazolin-3(4H)-yl)benzamide], in that order: 3900 nM, 12 nM and 2 nM.
In the same order, the values of `C[C@H](Nc1nc(N)nc(C(F)F)c1C#N)c1nc2c(F)ccc(Cl)c2c(=O)n1-c1cccc(C(N)=O)c1` [Compound 24, (S)-3-(2-(1-((2-amino-5-cyano-6-(difluoromethyl)pyrimidin-4-yl)amino)ethyl)-5-chloro-8-fluoro-4-oxoquinazolin-3(4H)-yl)benzamide] are 660 nM, 25 nM and 1 nM.
In the same order, the values of `C[C@H](Nc1nc(N)nc(C(F)F)c1C#N)c1nc2cccc(Cl)c2c(=O)n1-c1cccc(C(N)=O)c1` [Compound 25, (S)-3-(2-(1-((2-amino-5-cyano-6-(difluoromethyl)pyrimidin-4-yl)amino)ethyl)-5-chloro-4-oxoquinazolin-3(4H)-yl)benzamide] are 700 nM, 24 nM and 1 nM.
Take `C[C@H](Nc1nc(N)nc(C(F)F)c1C#N)c1nc2c(Cl)cc(F)cc2c(=O)n1-c1cccc(C(N)=O)c1` [Compound 26, (S)-3-(2-(1-((2-amino-5-cyano-6-(difluoromethyl)pyrimidin-4-yl)amino)ethyl)-8-chloro-6-fluoro-4-oxoquinazolin-3(4H)-yl)benzamide]: the half-maximal inhibitory concentration (IC50) on PI3Kγ was 7200 nM; on PI3Kβ, 313 nM; on PI3Kδ, 12 nM.
In the same order, the values of `NC(=O)c1cccc(-n2c([C@@H](Nc3nc(N)nc(N)c3Cl)C3CC3)nc3c(Cl)cc(F)cc3c2=O)c1` [Compound 28, (S)-3-(8-chloro-2-(cyclopropyl((2,6-diamino-5-chloropyrimidin-4-yl)amino)methyl)-6-fluoro-4-oxoquinazolin-3(4H)-yl)benzamide] are greater than 10000 nM, 267 nM and 46 nM.
In the same order, the values of `C[C@H](Nc1nc(N)nc(N)c1Cl)c1nc2c(Cl)cc(F)cc2c(=O)n1-c1cccc(C(N)=O)c1` [Compound 30, (S)-3-(8-chloro-2-(1-((2,6-diamino-5-chloropyrimidin-4-yl)amino)ethyl)-6-fluoro-4-oxoquinazolin-3(4H)-yl)benzamide] are greater than 10000 nM, 252 nM and 22 nM.
In the case of `C[C@H](Nc1nc(N)nc(N)c1C#N)c1nc2c(C#N)cc(F)cc2c(=O)n1-c1cccc(C(N)=O)c1` [Compound 31, (S)-3-(8-cyano-2-(1-((2,6-diamino-5-cyanopyrimidin-4-yl)amino)ethyl)-6-fluoro-4-oxoquinazolin-3(4H)-yl)benzamide], the IC50 on PI3Kγ is 1100 nM; on PI3Kβ, 21 nM; at PI3Kδ it was 2 nM.
For `N#Cc1c(N)nc(N)nc1N[C@H](c1nc2c(C#N)cc(F)cc2c(=O)n1-c1cccc(C(N)=O)c1)C1CC1` [Compound 32, (S)-3-(8-cyano-2-(cyclopropyl((2,6-diamino-5-cyanopyrimidin-4-yl)amino)methyl)-6-fluoro-4-oxoquinazolin-3(4H)-yl)benzamide], in that order: 1800 nM, 25 nM and 4 nM.
For `CC[C@H](Nc1nc(N)nc(N)c1C#N)c1nc2cccc(C(F)F)c2c(=O)n1-c1cccc(C(N)=O)c1` [Compound 33, (S)-3-(2-(1-((2,6-diamino-5-cyanopyrimidin-4-yl)amino)propyl)-5-(difluoromethyl)-4-oxoquinazolin-3(4H)-yl)benzamide], in that order: 380 nM, 4 nM and 0.8 nM.
In the same order, the values of `CC[C@H](Nc1nc(N)nc(N)c1Cl)c1nc2cccc(C(F)F)c2c(=O)n1-c1cccc(C(N)=O)c1` [Compound 34, (S)-3-(2-(1-((2,6-diamino-5-chloropyrimidin-4-yl)amino)propyl)-5-(difluoromethyl)-4-oxoquinazolin-3(4H)-yl)benzamide] are 5000 nM, 22 nM and 3 nM.
`N#Cc1c(N)nc(N)nc1N[C@H](c1nc2cccc(C(F)F)c2c(=O)n1-c1cccc(C(N)=O)c1)C1CC1` [Compound 35, (S)-3-(2-(cyclopropyl((2,6-diamino-5-cyanopyrimidin-4-yl)amino)methyl)-5-(difluoromethyl)-4-oxoquinazolin-3(4H)-yl)benzamide]: the IC50 at PI3Kγ was found to be 200 nM; on PI3Kβ it was 5 nM; at PI3Kδ, 1 nM.
For `C[C@H](Nc1nc(N)nc(N)c1Cl)c1nc2c(C#N)cccc2c(=O)n1-c1cccc(C(N)=O)c1` [Compound 36, (S)-3-(8-cyano-2-(1-((2,6-diamino-5-chloropyrimidin-4-yl)amino)ethyl)-4-oxoquinazolin-3(4H)-yl)benzamide], in that order: greater than 10000 nM, 299 nM and 10 nM.
For `C[C@H](Nc1ncnc(N)c1C#Cc1cnccn1)c1nc2cccc(Cl)c2c(=O)n1-c1cccc(C(N)=O)c1` [Compound 37, (S)-3-(2-(1-((6-amino-5-(pyrazin-2-ylethynyl)pyrimidin-4-yl)amino)ethyl)-5-chloro-4-oxoquinazolin-3(4H)-yl)benzamide], in that order: greater than 10000 nM, 243 nM and 7 nM.
Consider `C[C@H](Nc1ncnc(N)c1C#Cc1ccccn1)c1nc2cccc(Cl)c2c(=O)n1-c1cccc(C(N)=O)c1` [Compound 38, (S)-3-(2-(1-((6-amino-5-(pyridin-2-ylethynyl)pyrimidin-4-yl)amino)ethyl)-5-chloro-4-oxoquinazolin-3(4H)-yl)benzamide], for which the IC50 was 1500 nM at PI3Kγ, 52 nM at PI3Kβ and 1 nM at PI3Kδ.
In the same order, the values of `CCNC(=O)Nc1cccc(-n2c([C@@H](Nc3ncnc(N)c3[N+](=O)[O-])[C@@H](C)CC)nc3cccc(Cl)c3c2=O)c1` [Compound 43, 1-(3-(2-((1S,2S)-1-((6-amino-5-nitropyrimidin-4-yl)amino)-2-methylbutyl)-5-chloro-4-oxoquinazolin-3(4H)-yl)phenyl)-3-ethylurea] are greater than 10000 nM, 18 nM and 13 nM.
In the same order, the values of `CCNC(=O)Nc1cccc(-n2c([C@H](C)Nc3ncnc(N)c3C#N)nc3cccc(Br)c3c2=O)c1` [Compound 45, (S)-1-(3-(2-(1-((6-amino-5-cyanopyrimidin-4-yl)amino)ethyl)-5-bromo-4-oxoquinazolin-3(4H)-yl)phenyl)-3-ethylurea] are 1800 nM, 6 nM and 2 nM.
In the same order, the values of `C=CCc1cccc2nc([C@H](C)Nc3ncnc(N)c3C#N)n(-c3cccc(NC(=O)NCC)c3)c(=O)c12` [Compound 46, (S)-1-(3-(5-allyl-2-(1-((6-amino-5-cyanopyrimidin-4-yl)amino)ethyl)-4-oxoquinazolin-3(4H)-yl)phenyl)-3-ethylurea] are greater than 10000 nM, 35 nM and 17 nM.
Turning to `CCNC(=O)Nc1cccc(-n2c([C@H](C)Nc3ncnc(N)c3C#N)nc3cccc(F)c3c2=O)c1` [Compound 47, (S)-1-(3-(2-(1-((6-amino-5-cyanopyrimidin-4-yl)amino)ethyl)-5-fluoro-4-oxoquinazolin-3(4H)-yl)phenyl)-3-ethylurea], the results for the IC50 on PI3Kγ, at PI3Kβ and at PI3Kδ were greater than 10000 nM, 36 nM and 26 nM, respectively.
For `CCNC(=O)Nc1cccc(-n2c([C@H](C)Nc3ncnc(N)c3C#N)nc3c(Cl)ccc(Cl)c3c2=O)c1` [Compound 48, (S)-1-(3-(2-(1-((6-amino-5-cyanopyrimidin-4-yl)amino)ethyl)-5,8-dichloro-4-oxoquinazolin-3(4H)-yl)phenyl)-3-ethylurea], in that order: greater than 10000 nM, 7 nM and 3 nM.
For `CCNC(=O)Nc1cccc(-n2c([C@H](C)Nc3ncnc(N)c3C#N)nc3c(F)cccc3c2=O)c1` [Compound 49, (S)-1-(3-(2-(1-((6-amino-5-cyanopyrimidin-4-yl)amino)ethyl)-8-fluoro-4-oxoquinazolin-3(4H)-yl)phenyl)-3-ethylurea], the IC50 at PI3Kγ was greater than 10000 nM; on PI3Kβ it was 230 nM; at PI3Kδ, 24 nM.
In the same order, the values of `CCNC(=O)Nc1cccc(-n2c([C@H](C)Nc3ncnc(N)c3C#N)nc3c(F)ccc(F)c3c2=O)c1` [Compound 50, (S)-1-(3-(2-(1-((6-amino-5-cyanopyrimidin-4-yl)amino)ethyl)-5,8-difluoro-4-oxoquinazolin-3(4H)-yl)phenyl)-3-ethylurea] are greater than 10000 nM, 84 nM and 22 nM.
For `CCNC(=O)Nc1cccc(-n2c([C@H](C)Nc3ncnc(N)c3C#N)nc3ccccc3c2=O)c1` [Compound 52, (S)-1-(3-(2-(1-((6-amino-5-cyanopyrimidin-4-yl)amino)ethyl)-4-oxoquinazolin-3(4H)-yl)phenyl)-3-ethylurea], in that order: greater than 10000 nM, 340 nM and 39 nM.
